# In ChEMBL document CHEMBL1201862, “PubChem BioAssay data set” (2004):
#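 48-hour exposure; five concentrations; linearly interpolated endpoints. GI50 is the concentration that inhibits growth by half.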 Calls of active or inactive are those of the source. Rule as the data show it: active = GI50 up to about 1.1 µM and inactive = higher.
# Columns and labels:
# Experiment in all cases: NCI tumour cell line growth inhibition, 48 h
# BT-549 = test system: BT-549
# HOP-62 = test system: HOP-62
# SN12C = test system: SN12C
# HCT-15 = test system: HCT-15
# T47D = test system: T47D
# MOLT-4 = test system: MOLT-4
# NCI-H522 = test system: NCI-H522
# HOP-92 = test system: HOP-92
# SF-539 = test system: SF-539
# U-251 = test system: U-251
# MDA-MB-231 = test system: MDA-MB-231
# DU-145 = test system: DU-145
# PC-3 = test system: PC-3
# SK-MEL-2 = test system: SK-MEL-2
# SF-268 = test system: SF-268
# SW-620 = test system: SW-620
# EKVX = test system: EKVX
# SR = test system: SR
# UACC-62 = test system: UACC-62
# MDA-N = test system: MDA-N
# Hs-578T = test system: Hs-578T
# HT-29 = test system: HT-29
# OVCAR-3 = test system: OVCAR-3
# CAKI-1 = test system: CAKI-1
# ACHN = test system: ACHN
# OVCAR-5 = test system: OVCAR-5
# OVCAR-8 = test system: OVCAR-8
# RPMI-8226 = test system: RPMI-8226
# NCI-H23 = test system: NCI-H23
# HL-60 = test system: HL-60
# NCI/ADR-RES = test system: NCI/ADR-RES
# A498 = test system: A498
# SF-295 = test system: SF-295
# K562 = test system: K562
# RXF 393 = test system: RXF 393
# TK-10 = test system: TK-10
# MCF7 = test system: MCF7
# A549 = test system: A549
# KM12 = test system: KM12
# SNB-19 = test system: SNB-19
# SK-OV-3 = test system: SK-OV-3
# Malme-3M = test system: Malme-3M
# SK-MEL-5 = test system: SK-MEL-5
# CCRF-CEM = test system: CCRF-CEM
# LOX IMVI = test system: LOX IMVI
# M14 = test system: M14
# COLO 205 = test system: COLO 205
# MDA-MB-435 = test system: MDA-MB-435
# HCT-116 = test system: HCT-116
# UO-31 = test system: UO-31
# NCI-H460 = test system: NCI-H460
# IGROV-1 = test system: IGROV-1
# SK-MEL-28 = test system: SK-MEL-28
# OVCAR-4 = test system: OVCAR-4
# 786-0 = test system: 786-0
# NCI-H226 = test system: NCI-H226
# SNB-75 = test system: SNB-75
# UACC-257 = test system: UACC-257
structure (smiles),measurement,setting,value
Fc1ccc(C(=C2CCN(CCc3ccc4[nH]c(=S)[nH]c4c3)CC2)c2ccc(F)cc2)cc1,GI50,BT-549,5.98 µM (inactive)
same,GI50,HOP-62,15.8 µM (inactive)
same,GI50,SN12C,4.52 µM (inactive)
same,GI50,HCT-15,3.15 µM
same,GI50,T47D,1.92 µM (inactive)
same,GI50,MOLT-4,3 µM (inactive)
same,GI50,NCI-H522,1.52 µM (inactive)
same,GI50,HOP-92,2.62 µM (inactive)
same,GI50,SF-539,2.79 µM (inactive)
same,GI50,U-251,4.48 µM (inactive)
same,GI50,MDA-MB-231,4.43 µM (inactive)
same,GI50,DU-145,2.98 µM (inactive)
same,GI50,PC-3,2.73 µM (inactive)
same,GI50,SK-MEL-2,2.7 µM (inactive)
same,GI50,SF-268,6.65 µM (inactive)
same,GI50,SW-620,2.47 µM (inactive)
same,GI50,EKVX,3.51 µM (inactive)
same,GI50,SR,2.7 µM (inactive)
same,GI50,UACC-62,5.32 µM (inactive)
same,GI50,MDA-N,1.96 µM (inactive)
same,GI50,Hs-578T,10.9 µM (inactive)
same,GI50,HT-29,1.9 µM (inactive)
same,GI50,OVCAR-3,2.1 µM (inactive)
same,GI50,CAKI-1,10.8 µM (inactive)
same,GI50,ACHN,8.83 µM (inactive)
same,GI50,OVCAR-5,9.23 µM (inactive)
same,GI50,OVCAR-8,2.74 µM (inactive)
same,GI50,RPMI-8226,2.73 µM (inactive)
same,GI50,NCI-H23,5.02 µM (inactive)
same,GI50,HL-60,2.33 µM (inactive)
same,GI50,NCI/ADR-RES,8.59 µM (inactive)
same,GI50,A498,8.38 µM (inactive)
same,GI50,SF-295,6.92 µM (inactive)
same,GI50,K562,3.1 µM (inactive)
same,GI50,RXF 393,1.85 µM (inactive)
same,GI50,TK-10,2.17 µM (inactive)
same,GI50,MCF7,2.21 µM (inactive)
same,GI50,A549,3.94 µM (inactive)
same,GI50,KM12,6.47 µM (inactive)
same,GI50,SNB-19,12.4 µM (inactive)
same,GI50,SK-OV-3,18.7 µM (inactive)
same,GI50,Malme-3M,1.47 µM (inactive)
same,GI50,SK-MEL-5,1.84 µM (inactive)
same,GI50,CCRF-CEM,2.01 µM (inactive)
same,GI50,LOX IMVI,4.9 µM (inactive)
same,GI50,M14,1.83 µM (inactive)
same,GI50,COLO 205,1.72 µM (inactive)
same,GI50,MDA-MB-435,1.79 µM (inactive)
same,GI50,HCT-116,1.79 µM (inactive)
same,GI50,UO-31,2.67 µM (inactive)
same,GI50,NCI-H460,2.83 µM (inactive)
same,GI50,IGROV-1,3.99 µM (inactive)
same,GI50,SK-MEL-28,1.51 µM (inactive)
same,GI50,OVCAR-4,5 µM (inactive)
same,GI50,786-0,1.86 µM (inactive)
same,GI50,NCI-H226,22 µM (inactive)
same,GI50,SNB-75,2.92 µM (inactive)
O=c1cc(N2CCOCC2)oc2c(-c3ccccc3)cccc12 [LY-294002],GI50,BT-549,5.7 µM (inactive)
same,GI50,HOP-62,4.59 µM (inactive)
same,GI50,SN12C,5.36 µM (inactive)
same,GI50,HCT-15,7.91 µM
same,GI50,T47D,2.49 µM (inactive)
same,GI50,MOLT-4,11.4 µM (inactive)
same,GI50,NCI-H522,2.21 µM (inactive)
same,GI50,HOP-92,9.04 µM (inactive)
same,GI50,SF-539,7.98 µM (inactive)
same,GI50,U-251,19.5 µM (inactive)
same,GI50,MDA-MB-231,3.13 µM (inactive)
same,GI50,DU-145,12.4 µM (inactive)
same,GI50,PC-3,2.34 µM (inactive)
same,GI50,SK-MEL-2,9.93 µM (inactive)
same,GI50,SF-268,2.28 µM (inactive)
same,GI50,SW-620,21.7 µM (inactive)
same,GI50,EKVX,3.49 µM (inactive)
same,GI50,SR,3.36 µM (inactive)
same,GI50,UACC-62,3.79 µM (inactive)
same,GI50,MDA-N,11.8 µM (inactive)
same,GI50,Hs-578T,1.9 µM (inactive)
same,GI50,HT-29,6.25 µM (inactive)
same,GI50,OVCAR-3,7.16 µM (inactive)
same,GI50,CAKI-1,2.39 µM (inactive)
same,GI50,ACHN,7.45 µM (inactive)
same,GI50,OVCAR-5,12.1 µM (inactive)
same,GI50,OVCAR-8,4.58 µM (inactive)
same,GI50,RPMI-8226,2.96 µM (inactive)
same,GI50,NCI-H23,3.76 µM (inactive)
same,GI50,HL-60,14.7 µM (inactive)
same,GI50,NCI/ADR-RES,4.76 µM (inactive)
same,GI50,A498,2.48 µM (inactive)
same,GI50,SF-295,6.53 µM (inactive)
same,GI50,K562,14.2 µM (inactive)
same,GI50,RXF 393,2.77 µM (inactive)
same,GI50,TK-10,23.7 µM (inactive)
same,GI50,MCF7,3.09 µM (inactive)
same,GI50,A549,4.79 µM (inactive)
same,GI50,KM12,12.1 µM (inactive)
same,GI50,SNB-19,14.6 µM (inactive)
same,GI50,SK-OV-3,14.2 µM (inactive)
same,GI50,UACC-257,14.5 µM (inactive)
same,GI50,Malme-3M,0.286 µM (active)
same,GI50,CCRF-CEM,39.1 µM (inactive)
same,GI50,LOX IMVI,3.72 µM (inactive)
same,GI50,M14,11.1 µM (inactive)
same,GI50,COLO 205,13.5 µM (inactive)
same,GI50,MDA-MB-435,7.8 µM (inactive)
same,GI50,HCT-116,12.6 µM (inactive)
same,GI50,UO-31,15.8 µM (inactive)
same,GI50,NCI-H460,11.4 µM (inactive)
same,GI50,IGROV-1,2.49 µM (inactive)
same,GI50,SK-MEL-28,16.9 µM (inactive)
same,GI50,OVCAR-4,2.7 µM (inactive)
same,GI50,786-0,9.68 µM (inactive)
same,GI50,NCI-H226,3.93 µM (inactive)
same,GI50,SNB-75,1.11 µM (active)
